Assay results from patent publication US8476229B2, “Blood sugar-modulating polypeptides” (China Medical University, priority 2008, dated 2013).

Test system: normal mice (BALB/c)
Assay: Glucose challenge after oral administration of polypeptide, normal mice; blood sugar value by blood sugar meter
Type: in vivo
Settings: 50 mg/kg-body weight oral; for Inhibition Rate (%) toward the blood sugar values: BALB/c fasted 18 hrs, 4 g/kg glucose i.p. after 15 minutes, blood sugar after 180 minutes, relative to water control; for effect of reducing the blood sugar values (in words): BALB/c, comment on Tables 4 and 5
Excerpt: The following materials were adopted in the examples: • (A) Experimental subjects: two strains of mice, BALB/c (the metabolism of blood sugar is normal) and ob/ob (spontaneous diabetes type 2), were used to conduct experiments, and they were provided by the National Laboratory Animal Center, Taiwan. • (B) Polypeptides: polypeptides with amino acid sequences shown in Table 1 were produced by the solid phase synthesis method.
Five normal mice (BALB/c) in each of the nine groups fasted for 18 hrs, and then, respectively, a solution (20 μL) of 50 mg/kg-body weight of the polypeptide of SEQ ID NO: 1, a solution (20 μL) of 50 mg/kg-body weight of the polypeptide of SEQ ID NO: 2, a solution (20 μL) of 50 mg/kg-body weight of the polypeptide of SEQ ID NO: 3, a solution (20 μL) of 50 mg/kg-body weight of the polypeptide of SEQ ID NO: 4, a solution (20 μL) of 50 mg/kg-body weight of the polypeptide of SEQ ID NO: 5, a solution (20 μL) of 50 mg/kg-body weight of the polypeptide of SEQ ID NO: 6, a solution (20 μL) of 50 mg/kg-body weight of the polypeptide of SEQ ID NO: 7, a solution (20 μL) of 50 mg/kg-body weight of the polypeptide of SEQ ID NO: 8, or a solution (20 μL) of 50 mg/kg-body weight of the polypeptide of SEQ ID NO:9, was given to each mouse of each group of the experimental group by oral administration, while in the control group (five mice), each mouse was given water (20 μL). After 15 minutes, a solution of 4 g/kg-body weight of glucose was injected into the peritoneal cavity of each mouse to rapidly raise the blood sugar value of each mouse. After 180 minutes, the blood of each mouse was extracted from its tails, and the blood sugar value was determined by a blood sugar meter (Accu-Check Advantage, Roche, Germany). The blood sugar values of the mice of the experimental group were compared with those of the control group and were analyzed to obtain the relative inhibition rate of each of the polypeptides toward the blood sugar values, as shown in Table 4.
Five normal mice (BALB/c) in each of two groups fasted for 18 hrs, and then, respectively, a solution (20 μL) of 50 mg/kg-body weight of the polypeptide of SEQ ID NO: 10, or a solution (20 μL) of 50 mg/kg-body weight of the polypeptide of SEQ ID NO:11, was given to each mouse of each group of the experimental group by oral administration, while in the control group (five mice), each mouse was given water (20 μL). After 15 minutes, a solution of 4 g/kg-body weight of glucose was injected into the peritoneal cavity of each mouse to rapidly raise the blood sugar value of each mouse. After 180 minutes, the blood of each mouse was extracted from its tails, and the blood sugar value was determined by a blood sugar meter (Accu-Check Advantage, Roche, Germany). The blood sugar values of the mice of the experimental group were compared with those of the control group and were analyzed to obtain a relative inhibition rate of the polypeptides of SEQ ID NO:10 and SEQ ID NO:11 toward the blood sugar values, as shown in Table 5.

Sequence: RVWVWVNSKGIVIRTPIIT (ZINNIA ELEGANS) [SEQ ID NO: 2]
- Inhibition Rate (%) toward the blood sugar values: 24.5 ± 2.3%

Sequence: RVRVWVDENGIVISVPTIG (VITIS VINIFERA) [SEQ ID NO: 5]
- Inhibition Rate (%) toward the blood sugar values: 30.2 ± 31.3%

Sequence: RVRVWVDEIRIVVRNPTAG (ARABIDOPSIS THALIANA) [SEQ ID NO: 8]
- Inhibition Rate (%) toward the blood sugar values: 25.5 ± 8.6%

Sequence: RVRVWVTERGIVARPPTIG (MOMORDICA …) [SEQ ID NO: 11]
- Inhibition Rate (%) toward the blood sugar values (50 mg/kg): 51.9 ± 19.4 %
- Inhibition Rate (%) toward the blood sugar values (listed as SEQ ID NO:11, 50 mg/kg): about 50%
- effect of reducing the blood sugar values (in words): can reduce the blood sugar values of the normal mice efficiently

Sequence: RVRVWVNKKGKVIRVPRIG (CITRUS PARADISI) [SEQ ID NO: 6]
- Inhibition Rate (%) toward the blood sugar values: 26.2 ± 3.1%

Sequence: RVRVWVDSYGIVSMVPKIG (VITIS VINIFERA) [SEQ ID NO: 4]
- Inhibition Rate (%) toward the blood sugar values: 67.8 ± 9.1%
- effect of reducing the blood sugar values (in words): better effect of reducing the blood sugar values

Sequence: RVWVWINKDEIVYQVPTIG (MEDICAGO TRUNCATULA) [SEQ ID NO: 3]
- Inhibition Rate (%) toward the blood sugar values: 52.5 ± 14.9%

Sequence: RVRVWVDENGIVTRVPVIG (SAMBUCUS NIGRA) [SEQ ID NO: 7]
- Inhibition Rate (%) toward the blood sugar values: 56.3 ± 2.6%
- effect of reducing the blood sugar values (in words): better effect of reducing the blood sugar values

Sequence: DENRVRIWVDTVAKTPTIG (ORYZA SATIVA) [SEQ ID NO: 9]
- Inhibition Rate (%) toward the blood sugar values: 60.2 ± 14.1%
- effect of reducing the blood sugar values (in words): better effect of reducing the blood sugar values

Sequence: RVRIWVNKRGLVVSPPRIG (CUCURBITA MAXIMA) [SEQ ID NO: 1]
- Inhibition Rate (%) toward the blood sugar values: 15.7 ± 6.9%

Sequence: RVRVWVTERGIVAR (MOMORDICA …) [SEQ ID NO: 10]
- Inhibition Rate (%) toward the blood sugar values: 34.5 ± 8.8 %
- effect of reducing the blood sugar values (in words): can reduce the blood sugar values of the normal mice efficiently
